Assay results from patent US10981911B2, “Imidazopyrrolopyridine as inhibitors of the JAK family of kinases” (Janssen Pharmaceutica NV, priority 2016, dated 2021).
Read-outs that look alike come from different tables or passages of the source.

Legend:
[1] = Solubility assays in simulated gastric and simulated intestinal fluids; format: physicochemical; details: thermodynamic from solid, 2-5 days
Protocol: Test compounds were dissolved in DMSO at a concentration of 10 mM. The test compounds were dispensed (20 μL) into Nunc 1-mL-96-Deep-Well-PP plates, and the DMSO was evaporated via nitrogen blow down from a TurboVap 96 for 6 hours or until a dry residue was produced. Then, 400 μL of solubility media was added to the well containing the dry solid. […] After the incubation period, the samples were filtered through an AcroPrep 1-mL-96-Filter plate into a new 2-mL-96-Deep-Well-PP plate, and the supernatants were quantified by UV-HPLC using a 3-point calibration ranging from 0.004-0.55 mM. The solubility for each compound was calculated from the following equation: […] Solubilities are reported as long as the compound under study was sufficiently stable to complete the corresponding solubility determination.

[2] = In vivo p.o. dosing: plasma and colon tissue concentrations (Protocols 1 and 2); design: species or system female C57BL/6 mice; details: female, C57BL/6, mouse, po, mice, 25 mg/kg p.o.
Protocol: These protocols are described below under the heading In vivo Studies. Three non-fasted female C57BL/6 mice were orally administered test compound at a dose of 25 mg/kg p.o. as a solution in 20% hydroxypropyl-beta-cyclodextrin (HPβCD) at a dose volume of 5 mL/kg. Blood samples were collected at 0.5, 2, and 4 h post dose via retro-orbital bleed or venipuncture of the dorsal metatarsal vein. Blood samples were collected into tubes containing anticoagulant (Heparin-Na) and placed on wet ice. The plasma fraction was separated by centrifugation and frozen at −20° C. for up to 4 h and −80° C. after 4 h unless analyzed shortly after sample collection. Colon samples were collected at 4 h post dose. […] The colon was further washed by putting it in 5 mL of saline and shaken for 5 seconds. The colon sample was then patted dry, weighed, and homogenized as 1 part tissue (g) to 4 parts HPLC grade water (mL). Concentrations of the compound in plasma and colon homogenate were determined using a qualified liquid chromatography-triple quadrupole mass spectrometry (LC-MS/MS) method. […] Three non-fasted female C57BL/6 mice were orally administered test compound at a dose of 25 mg/kg p.o. as a solution in 20% HPβCD at a dose volume of 5 mL/kg. Blood samples were collected at 0.5, 2, and 4 h post dose via retro-orbital bleed or dorsal metatarsal vein. Blood samples were collected into tubes containing anticoagulant (Heparin-Na) and placed on wet ice. The plasma fraction was separated by centrifugation and frozen at −20° C. for up to 4 h and −80° C. after 4 h unless analyzed shortly after sample collection. Colon samples were collected at 4 h post dose. From 2 cm below the cecum, a 4 cm sample of the colon was dissected, cut open on the longitudinal axis, and the solid contents removed by flushing with 2 mL of saline. The colon was further washed by putting it in 5 mL of saline and shaken for 5 seconds. The colon sample was then patted dry, weighed, and homogenized as 1 part tissue (g) to 4 parts HPLC grade water (mL). Concentrations of the compound in plasma and colon homogenate were determined using a qualified liquid chromatography-triple quadrupole mass spectrometry (LC-MS/MS) method.

P-gp (MDR1) = test: MDCK-MDR1 permeability assay; format: in vitro ADME; details: dog, MDCK-MDR1, pH 7.4, @ 5 μM; for Papp A→B at 60 min, 5 μM: apical to basolateral, without P-gp inhibitor; for Papp B→A at 60 min, 5 μM: basolateral to apical
Protocol: Permeability measurements were conducted according to the Cyprotex protocol using the MDCK-MDR1 cell line obtained from the NIH (Rockville, Md., USA). Cells between passage numbers 6-30 were seeded onto a Multiscreen Plate™ (Millipore) at a cell density of 3.4×10^5 cells/cm^2 and cultured for three days before permeability studies were conducted. The cells in this assay form a cohesive sheet of a single cell layer filing the surface area of the culture dish, also known as a confluent monolayer, and on day four the test compound was added to the apical side of the membrane and the transport of the compound across the monolayer was monitored over a time period of 60 min.
Test compounds were dissolved in DMSO at a concentration of 10 mM. The dosing solutions were prepared by diluting test compound with assay buffer (Hanks Balanced Salt Solution), pH 7.4, at a final concentration of 5 μM. For assessment of apical to basolateral (“A-B”) permeability, buffer was removed from the apical compartment and replaced with test compound dosing solution with or without the permeability glycoprotein (“PgP”, “P-gP”, “Pgp” or “P-gp”) inhibitor elacridar (2 μM). For assessment of basolateral to apical (“B-A”) permeability, buffer was removed from the companion plate and replaced with test compound dosing solution. Incubations were carried out in duplicate at 37° C. in an atmosphere of 5% CO2 with a relative humidity of 95%. Each assay included the reference markers propranolol (high permeability) and prazosin (PgP substrate). After incubation for 60 minutes, apical and basolateral samples were diluted and test compounds quantified by LC/MS/MS using an 8-point calibration in the range 0.0039 to 3 μM with appropriate dilution of the samples (receiver dilution factor=1; donor and C0 dilution factor=10). The permeability coefficient (Papp) for each compound was calculated from the following equation: Papp=(dQ/dt)/(C0×S), where dQ/dt is the rate of permeation of the drug across the cells, C0 is the donor compartment concentration at time zero, and S is the area of the cell monolayer.
The second and third columns in Table 7 show the values of Papp(A-B) for the apical-to-basolateral compound transport without (second column) and with a P-gp inhibitor (third column, noted as P^eapp(A-B)) that was elacridar. Papp(A-B) gives an indication of permeation extent across the cells in this assay, which is envisaged to model the transcellular transport across Pgp-expressing cells, such as Pgp-expressing gastrointestinal tract cells. P^eapp(A-B) values (Papp(A-B) in the presence of the P-gp inhibitor) given in column 3 are determined to confirm the role of P-gp in the compound efflux. […] Test compound efflux ratios are given in the fifth column of Table 7 as Papp(B-A)/Papp(A-B) by using the corresponding permeability coefficient values from the fourth and second columns in the same table.

[3] = fassif, simulated intestinal fluid, fasted state pH 6.5, ambient temperature, read-out: SIF solubility
[4] = simulated gastric fluid, ambient temperature, read-out: SGF solubility
[5] = colon, read-out: Colon Concentration After p.o. Dosing, Mean

Compound | solubility [1, 3] | solubility [1, 4] | concentration at 4 h [2, 5] | concentration at 0.5 h ([2]; plasma, Time = 0.5 h, read-out: Plasma Concentration After p.o. Dosing, Mean) | concentration at 2 h ([2]; plasma, Time = 2 h, read-out: Plasma Concentration After p.o. Dosing, Mean) | concentration at 4 h ([2]; plasma, read-out: Plasma Concentration After p.o. Dosing, Mean) | Papp A→B at 60 min, 5 μM (P-gp (MDR1)) | Papp B→A at 60 min, 5 μM (P-gp (MDR1))
Cn1cc(NC(=O)Cc2nc3cnc4[nH]ccc4c3n2[C@H]2CC[C@H](CC#N)CC2)cn1 [Ex. 38, 2-(1-((1r,4r)-4-(Cyanomethyl)cyclohexyl)-1,6-dihydroimidazo[4,5-d]pyrrolo[2,3-b]pyridin-2-yl)-N-(1-methyl-1H-pyrazol-4-yl)acetamide] | > 400 µM | > 400 µM | 7680 ng/g | 15.1 ng/mL | 6.2 ng/mL | 3.9 ng/mL | < 0.4 ×10⁻⁶ cm/s | 1.8 ×10⁻⁶ cm/s
N#CC[C@H]1CC[C@H](n2c(CC(=O)Nc3cc[nH]n3)nc3cnc4[nH]ccc4c32)CC1 [Ex. 74, 2-(1-((1r,4r)-4-(Cyanomethyl)cyclohexyl)-1,6-dihydroimidazo[4,5-d]pyrrolo[2,3-b]pyridin-2-yl)-N-(1H-pyrazol-3-yl)acetamide] | > 400 µM | > 400 µM | 4780 ng/g |  |  |  | < 0.4 ×10⁻⁶ cm/s | 1.1 ×10⁻⁶ cm/s
